Reference: a melting point compilation (Tetko et al.; mined from patent text by program, amines drawn as free bases though some values may be those of a salt)

Row | melting point | SMILES
1 | 233 to 235 °C | Fc1ccc(-c2nn3c(c2-c2ccncc2)NNCC3)cc1
2 | 176 to 178 °C | N#Cc1ccccc1-c1ccc(O)cc1
3 | 162 to 167 °C | O=C(Nc1ccc(-n2nc(C3CC3)cc2C2CC2)cc1)c1ccc2nccnc2c1
4 | 77 to 79 °C | O=C(Oc1ccc2ncccc2c1)c1ccccc1
5 | 192 to 193 °C | COc1ccc(CSc2nnc(-c3ccc4[nH]ncc4c3)o2)cc1C#N
6 | 166 to 168 °C | COC(=O)C(OC)c1nsc2ccc(-n3c(=O)cc(C(F)(F)F)n(C)c3=O)cc12 (centres undefined)
7 | 108 to 109 °C | O=C1NCC(COc2ccccc2)O1 (centres undefined)
8 | 107 to 108 °C | Fc1ccc(C2CSCC(=S)N2)cc1 (centres undefined)
9 | 157 to 158 °C | Cc1nc(-n2cnn(CC3CC3)c2=O)sc1C(=O)NCc1cocn1
10 | 186 to 189 °C | Cc1cc(NCCO)c2nn(C)c(C)c2n1
11 | 150 to 151 °C | O=C(c1cccs1)c1cnn2c(-c3ccc(F)c(N(C(=O)c4ccccc4Cl)C(=O)c4ccccc4Cl)c3)ccnc12
12 | 147 to 149 °C | CCCCCCCCc1ccc(-c2ncc(O)cn2)cc1
13 | 97 to 100 °C | O=C(NC(CC1CCCC1)C(=O)NC1CCCN(C(=O)c2ccccc2)CC1=O)c1ccco1 (centres undefined)
14 | 138 to 141 °C | Cc1cccc(C)c1NC(=O)NCCCc1cc(-c2ccccc2)n(-c2ccc(S(N)(=O)=O)cc2)n1
15 | 120 to 122 °C | CC(C)c1c(CCC=O)c2c(c(C(C)C)c1OCc1ccccc1)CC(C)(C)O2
16 | 120 to 121 °C | COC(CCc1cc(C(F)(F)F)cc(C(F)(F)F)c1)C(Cc1csc2ccccc12)NC(C)=O (centres undefined)
17 | 199 to 202 °C | ON=C1CCN(CC2c3ccccc3CCc3ccccc32)CC1
18 | 216 to 217 °C | Cc1ccc(C2c3c(C)c(N4CCN(c5ccc(C#N)cc5)CC4)c(C)c(C)c3OC2(C)C)cc1 (centres undefined)
19 | 238 °C | CN(C)NC(=O)Nc1cccc2c1C(=O)c1c-2n[nH]c1-c1ccc(N2CCNCC2)cc1
20 | 168 to 170 °C | O=[N+]([O-])c1cnc2ccc(SC(c3ccccc3)(c3ccccc3)c3ccccc3)nn12
21 | 126 °C | CC(C)N(C)C(=O)COCCCCCCCC[C@H]1C[C@]2(C)[C@@H](O)CC[C@H]2[C@@H]2CCc3cc(O)ccc3[C@@H]12
22 | 87 to 88 °C | O=C(CCCl)N(O)c1ccccc1
23 | 141 to 142 °C | CC(Oc1ccc(Cl)cc1)(C(=O)O)C(F)(F)F (centres undefined)
24 | 130 to 133 °C | CC(C)CCN1N=C(c2ccc(F)cc2)c2cc(F)ccc2CS1(=O)=O

Row | melting point | SMILES
25 | 111 to 112 °C | CC(c1ccc(Cl)cc1Cl)C1(c2cccnc2)OC=CC1=O (centres undefined)
26 | 174 °C | COc1cc(NC(=O)OCCCN2CCN(c3ccc(Cl)cc3)CC2)cc(OC)c1OC
27 | 157 to 158 °C | O=C(O)CCCCn1ccnc1
28 | 187 to 188 °C | CCN1C(CNC(=O)c2cc(Cl)c(N)cc2OC)CCC1c1ccccc1 (centres undefined)
29 | 178 to 180 °C | C=CCC1CC(c2c[nH]c(-c3ccc(F)cc3)c2-c2ccncc2)=CCN1C (centres undefined)
30 | 68 °C | CCCCC(CC)COC(=O)C(C#N)=Cc1ccc(NC(=O)C(CC)CCCC)cc1 (centres undefined)
31 | 119 to 121 °C | NCCCCc1csc(-c2ccccn2)n1
32 | 159 to 162 °C | Cc1ccccc1NC(=O)Nc1ccc(-c2c(CCO)sc3ncnc(N)c23)cc1
33 | > 300 °C | COc1ccc(-c2cc3c(N4CCc5ccccc54)ncnc3[nH]2)cc1
34 | 188 °C | COc1ccc(CCNCC(O)C(=O)O)cc1OC (centres undefined)
35 | 165 to 166 °C | O=C1c2ccccc2-c2c1c1ccccc1c(=O)n2CCCCO
36 | 195 to 196 °C | COC(=O)c1ccc2[nH]cc(CCCCN3CCN(c4ccccc4OC)CC3)c2c1
37 | 154 to 159 °C | Clc1cc(C2CO2)cc(OCc2ccccc2)c1OCc1ccccc1 (centres undefined)
38 | 172 to 175 °C | O=C(NCc1ccccc1)c1ccc(OC2CCCC2)c2oc3ccccc3c12
39 | 95 to 97 °C | CC(C)(C)c1cc(C(=O)c2ccccn2)cc2c1OCC2(C)C
40 | 135 to 137 °C | CN(C)C=Nc1c(Cl)cc(NCc2ccc(N(C)C)cc2Br)cc1Cl
41 | 207 to 208 °C | Cc1c(S(=O)(=O)Nc2ccc(-c3ncco3)cc2S(C)(=O)=O)sc2ccc(F)cc12
42 | 168 to 169 °C | O=C(Nc1c(Cl)cccc1Cl)c1cccc2cccnc12
43 | 102 to 106 °C | CC(C)(c1ccccc1)n1nnc(-c2ccccc2-c2ccc(C3OCCCO3)cc2)n1
44 | 166 to 167 °C | CC(C)(C)OC(=O)CN(C(=O)CNC(=O)Nc1ccccc1)c1ccccc1C(=O)c1ccccc1
45 | 109 to 111 °C | CC(=O)c1cc(C[C@H](NC(=O)c2c(Cl)cccc2Cl)C(=O)O)ccc1-c1ccccc1
46 | > 255 °C | Cc1nc2c(N)nc3cccnc3c2n1CC1(O)CCN(S(C)(=O)=O)CC1
47 | 65 to 68 °C | COc1ccc(CCN2C=CC=C3C2=Nc2cc(OC)ccc2S(=O)(=O)N3C)cc1
48 | 207 to 210 °C | CS(=O)(=O)Nc1ccc(C(=O)c2[nH]c3cc(Cl)ccc3c2CC(=O)O)cc1

Row | melting point | SMILES
49 | 85 to 86 °C | CCOc1c(CO)cnc2c1c(C)nn2CC
50 | 217 °C | O=C(Cc1cccc(O)c1)NNC(=O)c1c(O)cc(O)cc1Cl
51 | 111 to 113 °C | CCOC(=O)c1cnc2nn(CC)cc2c1OCC
52 | 218 to 220 °C | C#CCN1C(=O)COc2ccc(-n3c(OC)nc(C(F)(F)F)cc3=O)cc21
53 | < 50 °C | COC(=O)C(C)(C)Nc1ccc(OCc2ccccc2)cc1
54 | 112 to 115 °C | COc1ccc(-c2cccc3c(C(C)C)c(C)nn23)c(Cl)c1
55 | 134 to 136 °C | CCCCCCc1cc2c(cc1/C=C/c1ccc(C(=O)O)cc1)C(C)(C)CCC2(C)C
56 | 116 to 117 °C | CCOC(=O)CCC(=O)c1ccc(O)c(O)c1
57 | 73.8 to 75.2 °C | CC(=O)N(C#N)C/C=C\CN(C#N)C(C)=O
58 | 141 to 143 °C | COc1ccc2c(c1)C(=O)N(c1ccc3ccoc3c1)C2
59 | 189 to 191 °C | COc1nc(Nc2ccc(C)cc2[N+](=O)[O-])nc(OC)n1
60 | 149 to 151 °C | CCNCc1cnc2c(C)c(NC(=O)c3ccc(OC[C@@H]4CCCO4)cc3)ccc2c1
61 | 111 to 113 °C | COC(=O)CCCN(C(=O)C(C)N(C(C)=O)c1ccc(OC)cc1)c1ccc(OC)cc1 (centres undefined)
62 | 125 to 130 °C | CCCCc1oc2ccccc2c1C(=O)NCc1ccc2c(Br)c(OC(Cc3ccccc3)C(=O)O)ccc2c1 (centres undefined)
63 | 256 to 258 °C | COc1cc(-c2cccs2)cc(OC)c1/C=C/C(=O)c1ccc(C(=O)O)cc1
64 | 62 to 66 °C | O=C(O)C(CC(=O)N1CCOCC1)Cc1cccc2ccccc12 (centres undefined)
65 | 168 to 170 °C | COc1ccc(NC(=O)NC/C=C2\CCCc3ccc(OC)cc32)cc1
66 | 140 °C | COc1ccccc1Sc1c(Cl)nc(C)nc1Cl
67 | 135 to 140 °C | C[N+]([O-])(c1cnccc1[N+](=O)[O-])n1cccc1 (centres undefined)
68 | 125 to 128 °C | COCCNC(N)=Nc1ccccc1N1CCOCC1
69 | 146 to 149 °C | COC(=O)C[C@@H](SCc1ccccc1)C(N)=O
70 | 206 to 207 °C | CCOC(=O)c1ccc(Nc2nnc(-c3ccc(Oc4ccccc4)cc3)s2)cc1
71 | 118 °C | O=C(O)c1ccc(OCCNC(=O)C2Cc3ccccc3N2S(=O)(=O)c2ccc(-c3ccc(F)cc3)cc2)c(F)c1 (centres undefined)
72 | 247 to 248 °C | Cc1c(F)cc(C(C)(C)C)c(O)c1-c1nc2ccc(F)cc2c(=O)[nH]1

Row | melting point | SMILES
73 | 128 to 134 °C | Cc1c(CCC(=O)O)c[nH]c1C=O
74 | 138 to 140 °C | CCCCCCN(CCCCCC)C(Nc1ccc(-c2ccccc2)cc1)=C1C(=O)COC1=O
75 | 180 to 182 °C | CCOP(=O)(Cc1ccc(NC(=S)Nc2cc(-c3cc4cc(F)c(F)cc4[nH]3)ccc2OC)cc1)OCC
76 | 175 to 176 °C | CN1CCn2nc(Nc3cc(Cl)nn(C)c3=O)cc2C1
77 | 157 to 160 °C | COc1cc2c(N3CCN(C(=O)Nc4ccc(Oc5ccccc5)cc4)CC3)ncnc2cc1OC(C)C
78 | 96 to 97 °C | COC(=O)c1cncc(NC(=O)C(C)CS)c1 (centres undefined)
79 | 174 to 177 °C | Cc1ccc(-n2nc(C(C)(C)C)cc2NC(=O)Nc2ccc(N(C)c3ccncc3)c3ccccc23)cc1
80 | 253 °C | CCN(CC)c1ccc(-c2cc(-c3ccc(C(=O)O)cc3)ccc2CCCNC(C)C)cc1C(C)(C)C
81 | 63 to 64 °C | COc1ccc(-n2cc(C)cc2-c2ccc(S(N)(=O)=O)cc2)cc1
82 | 258 to 259 °C | COc1ccc(/C=C/C(=O)Nc2ccc(C(=O)O)cc2)cc1OC
83 | 205 °C | CN1C(=O)C(Br)=C(c2c[nH]c3c(OC(c4ccccc4)c4ccccc4)cccc23)C1=O
84 | 222 to 224 °C | Cc1cc(NC(=O)c2cc(F)cc(N(C3CN(C(c4ccc(Cl)cc4)c4ccc(Cl)cc4)C3)S(C)(=O)=O)c2)no1
85 | 115 to 117 °C | O=C1CN(c2ccccc2)C1=O
86 | 48 to 52 °C | CC1(C)CCCN(CC2(O)CCNCC2)C1
87 | 191 to 193 °C | CN(C)CCOc1ccc2sc(C(=O)Nc3ccccc3N)cc2c1
88 | 148 to 150 °C | CC(=NO)c1nn(C)c2cc(Oc3ccc(Cl)cc3)ccc12
89 | 102 °C | COc1cccc2c1C(=O)C(CC=O)C2 (racemic)
90 | 99 to 102 °C | CC(C)C[C@H](CC(=O)NC1CCCCC1)C(=O)OCc1ccccc1
91 | 112 to 113 °C | CCCCCCN(C=CC=C(C#N)C#N)CCCCCC
92 | 153 to 155 °C | CCOC(=O)c1c(CCc2ccccc2)nc2c(cnn2CC)c1O
93 | 131 to 133 °C | CCCN1CCN=C1c1ccccc1C(=O)c1ccc(Cl)cc1

Row | SMILES | melting point
94 | CC12CC(N3CCC(=O)CC3)C(O)CC1CCC1C2CCC2(C)C(O)C(N3CCCC3)CC12 (centres undefined) | 136 to 138 °C
95 | CCCCOc1ccccc1C(O)CNC(C)Cc1ccc(OC)c(OC)c1 (centres undefined) | 119 to 121 °C
96 | CN1CCC[C@@H]1Cc1c[nH]c2ccc(CS(=O)(=O)NC(C)(C)C)cc12 | 73 to 75 °C
97 | CCCCN(CCCC)Cc1nnc(-c2ncn3c2CN(C)C(=O)c2c(Cl)cccc2-3)o1 | 105 to 108 °C
98 | CNC(=O)N1N=C(c2ccc([N+](=O)[O-])cc2)c2cc(Br)ccc2CC1C (centres undefined) | 197 to 200 °C
99 | CC(C)P1(=O)c2ccccc2CN1c1ccc(Cl)cc1 (centres undefined) | 172 to 174 °C
